{
  "source": "patent US20220193076A1",
  "about": "“METHODS OF TREATING BREAST CANCER WITH TUCATINIB” (Seagen Inc., priority 2019, published 2022)",
  "key": {"[1]": {"assay": "Example 1: renal function (iohexol aGFR, serum creatinine, urine albumin)", "assay_type": "in vivo, human"}, "[2]": {"target": "T1, CYP3A4 (Homo sapiens, UniProt P08684)", "T1 sequence (P08684 whole entry)": "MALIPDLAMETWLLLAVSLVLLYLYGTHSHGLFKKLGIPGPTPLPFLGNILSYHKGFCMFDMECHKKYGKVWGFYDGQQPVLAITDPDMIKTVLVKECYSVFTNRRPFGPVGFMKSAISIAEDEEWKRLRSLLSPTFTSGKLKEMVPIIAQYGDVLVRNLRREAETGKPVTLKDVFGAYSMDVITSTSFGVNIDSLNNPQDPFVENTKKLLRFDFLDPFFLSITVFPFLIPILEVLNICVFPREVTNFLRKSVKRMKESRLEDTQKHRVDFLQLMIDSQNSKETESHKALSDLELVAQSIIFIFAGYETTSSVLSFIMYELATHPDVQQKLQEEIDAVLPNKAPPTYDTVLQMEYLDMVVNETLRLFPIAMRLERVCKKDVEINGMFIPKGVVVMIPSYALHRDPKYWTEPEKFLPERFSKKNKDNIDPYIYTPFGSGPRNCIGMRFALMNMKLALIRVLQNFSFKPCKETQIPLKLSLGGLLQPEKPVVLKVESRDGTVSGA", "assay": "In vitro time-dependent inhibition of CYP3A4 (background statement)", "assay_type": "in vitro ADME"}, "[3]": {"target": "T2, CYP2C8 (Homo sapiens, UniProt P10632)", "T2 sequence (P10632 1-490)": "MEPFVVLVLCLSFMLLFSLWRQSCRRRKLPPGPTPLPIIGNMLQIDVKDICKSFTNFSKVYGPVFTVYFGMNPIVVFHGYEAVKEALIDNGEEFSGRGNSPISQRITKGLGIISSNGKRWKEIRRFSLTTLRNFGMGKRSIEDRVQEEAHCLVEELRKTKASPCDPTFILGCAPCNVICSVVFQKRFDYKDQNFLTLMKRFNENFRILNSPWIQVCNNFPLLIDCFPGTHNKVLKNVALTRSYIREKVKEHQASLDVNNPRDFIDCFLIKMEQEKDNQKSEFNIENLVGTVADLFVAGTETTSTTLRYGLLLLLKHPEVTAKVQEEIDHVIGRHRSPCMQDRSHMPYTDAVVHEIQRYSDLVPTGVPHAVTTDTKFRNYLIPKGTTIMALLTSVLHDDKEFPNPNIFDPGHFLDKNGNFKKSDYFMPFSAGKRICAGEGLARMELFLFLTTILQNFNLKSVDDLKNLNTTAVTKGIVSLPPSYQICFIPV", "assay": "Ki determination in pooled human liver microsomes, amodiaquine N-deethylase (Example 5)", "assay_type": "in vitro ADME", "procedure": "(§1) The objective of this study was to evaluate in vitro the Ki of tucatinib of the following human hepatic cytochrome P450 (CYP) enzymes (CYP2C8, CYP2C9, and CYP3A4) and UGT1A1. […] Pooled human liver microsomes (HLM) from 150 individuals (79 males and 71 females) were obtained from BioreclamationIVT (Baltimore, Md.) and stored at approximately −70° C. The microsomes were characterized by the supplier for total protein and selected cytochrome P450 activities. […] The final organic solvent contribution was ≤1%. Incubations were terminated by the addition of chilled acetonitrile containing a stable isotope-labeled internal standard. […] Samples were analyzed by liquid chromatography with tandem mass spectrometry (LC-MS/MS). Analyte concentrations were quantified by LC-MS/MS and interpolated from standard curves of authentic analyte. […] Activities were calculated based on analyte concentration, incubation time, and protein concentration. Enzymatic activity (pmol/minute/mg protein) was expressed as the formation of the analyte per final protein concentration per incubation time. Activity remaining was expressed as the enzymatic activity at each concentration point of the test article normalized by the solvent control mean activity. […]"}, "[4]": {"assay": "Example 2 Part D: single- and multiple-dose PK of tucatinib and ONT-993", "assay_type": "in vivo, human", "conditions": "tucatinib 300 mg BID, Day 10 vs Day 4", "excerpt": "Other noncompartmental PK parameters may be reported."}, "[5]": {"assay": "Predicted hepatic metabolic stability across species", "assay_type": "in vitro ADME"}, "[6]": {"target": "CYP2C9 (Homo sapiens, UniProt P11712)", "sequence (P11712 whole entry)": "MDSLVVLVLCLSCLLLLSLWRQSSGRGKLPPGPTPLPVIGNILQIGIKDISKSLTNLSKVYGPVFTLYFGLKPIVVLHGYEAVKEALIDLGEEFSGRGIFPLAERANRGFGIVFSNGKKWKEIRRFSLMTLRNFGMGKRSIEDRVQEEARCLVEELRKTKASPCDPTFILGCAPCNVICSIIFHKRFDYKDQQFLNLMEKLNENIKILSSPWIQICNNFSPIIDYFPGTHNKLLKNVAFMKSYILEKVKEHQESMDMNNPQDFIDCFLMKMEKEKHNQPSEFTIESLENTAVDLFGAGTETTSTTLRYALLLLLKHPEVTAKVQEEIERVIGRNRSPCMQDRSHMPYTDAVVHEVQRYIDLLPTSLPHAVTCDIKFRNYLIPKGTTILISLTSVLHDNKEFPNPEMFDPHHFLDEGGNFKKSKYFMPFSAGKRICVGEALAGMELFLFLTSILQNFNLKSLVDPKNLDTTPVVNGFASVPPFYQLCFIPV", "assay": "Ki determination in pooled human liver microsomes, diclofenac 4'-hydroxylase (Example 5)", "assay_type": "in vitro ADME", "design": "endogenous in cells; host or cells: healthy human subjects, in vivo", "procedure": "as §1"}, "[7]": {"target": "T1, CYP3A4", "assay": "Example 2 Part A: effect of strong CYP3A4 inhibitor itraconazole on PK of tucatinib", "assay_type": "in vivo", "design": "endogenous in cells; host or cells: healthy human subjects, in vivo", "conditions": "tucatinib 300 mg single dose in combination with itraconazole vs tucatinib alone", "procedure": "A primary objective of the study is to assess the effect of a strong CYP3A4 inhibitor (itraconazole) on the single-dose PK of tucatinib. […] They were discharged on Day 8 after completion of the in-patient assessments. […] On Day 3, each subject received oral doses of 200 mg of itraconazole, twice daily (BID). From Day 4 to Day 7, each subject received single oral doses of 200 mg of itraconazole once daily (QD). Itraconazole was administered in the fed state (within 5 minutes after completion of meals). On Day 6, each subject received a single oral dose of 300 mg of tucatinib at about 2 hours after the completion of breakfast and after itraconazole in the morning. […] Other noncompartmental PK parameters may be reported. Additionally, blood samples were collected for determination of trough levels of itraconazole prior to morning dosing on the days indicated in FIG. 5."}, "[8]": {"target": "T3, organic cation transporter (OCT)2 (Homo sapiens, UniProt O15244)", "T3 sequence (O15244 1-555)": "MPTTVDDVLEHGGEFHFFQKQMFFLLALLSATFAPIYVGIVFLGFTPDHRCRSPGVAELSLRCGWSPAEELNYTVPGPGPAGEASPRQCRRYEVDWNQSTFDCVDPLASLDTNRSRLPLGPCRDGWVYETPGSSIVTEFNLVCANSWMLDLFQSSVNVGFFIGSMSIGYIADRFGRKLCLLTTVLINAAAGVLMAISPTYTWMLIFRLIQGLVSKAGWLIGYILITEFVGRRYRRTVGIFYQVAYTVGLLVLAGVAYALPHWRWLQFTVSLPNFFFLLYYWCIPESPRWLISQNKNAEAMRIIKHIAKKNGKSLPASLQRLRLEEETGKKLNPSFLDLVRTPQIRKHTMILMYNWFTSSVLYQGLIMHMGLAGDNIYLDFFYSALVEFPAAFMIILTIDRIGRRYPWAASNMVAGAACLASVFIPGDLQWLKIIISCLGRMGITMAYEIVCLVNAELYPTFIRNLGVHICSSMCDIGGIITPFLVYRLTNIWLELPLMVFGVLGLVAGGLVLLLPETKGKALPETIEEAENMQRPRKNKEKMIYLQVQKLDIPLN", "assay": "In vitro inhibition of OCT2 activity", "assay_type": "in vitro ADME", "conditions": "read-out: 50% inhibitory concentration (IC50), OCT2"}, "[9]": {"conditions": "following multiple doses of tucatinib"}},
  "data": [
    {"smiles": "Cc1cc(Nc2ncnc3ccc(NC4=NC(C)(C)CO4)cc23)ccc1Oc1ccn2ncnc2c1", "note": "[tucatinib]", "values": [
      {"measurement": "Renal damage", "setting": "[1]; conclusion of Example 1", "result": "does not cause renal damage"},
      {"measurement": "Change in mean serum creatinine", "setting": "[1]; [9]", "result": "increase"},
      {"measurement": "Measures of renal function including aGFR as assessed by iohexol and urine albumin levels", "setting": "[1]; [9]", "result": "not affected"},
      {"measurement": "Time-dependent inhibition of CYP3A4", "setting": "[2]", "result": "no time-dependent inhibition"},
      {"measurement": "Inhibition mechanism, CYP2C8", "setting": "[3]", "result": "competitive inhibition"},
      {"measurement": "Ki", "setting": "[3]; marker substrate amodiaquine", "result": 0.17, "unit": "µM"},
      {"measurement": "Rac (accumulation ratio) after multiple dosing", "setting": "[4]", "result": 1.85},
      {"measurement": "Stability with respect to hepatic metabolism", "setting": "[5]", "result": "good-to-moderate stability"},
      {"measurement": "Inhibition mechanism, CYP2C9", "setting": "[6]", "result": "competitive inhibition"},
      {"measurement": "Ki", "setting": "[6]; marker substrate diclofenac", "result": 4.57, "unit": "µM"},
      {"measurement": "Geometric LS mean ratio (90% CI), AUC0-∞", "setting": "[7]", "result": "1.34 (1.26, 1.43)"},
      {"measurement": "Geometric LS mean ratio (90% CI), AUClast", "setting": "[7]", "result": "1.33 (1.25, 1.41)"},
      {"measurement": "Geometric LS mean ratio (90% CI), Cmax", "setting": "[7]", "result": "1.32 (1.23, 1.42)"},
      {"measurement": "IC50", "setting": "[8]", "result": 14.7, "unit": "µM"}
    ]}
  ]
}
